Where two headings read alike, the source gives them in different places.
Experiments:
cyclooxygenase = target: T1, cyclooxygenase (Rattus norvegicus, UniProt Q63921); experiment: inhibition of cyclooxygenase derived from rat basophilic leukemia (RBL-1) cells (PGD2 formation, C1); format: biochemical; details: RBL-1 enzyme, read-out: % Inhibition C1 (cyclooxygenase product PGD2)
T1 construct: 14C-arachidonic acid substrate, PGD2 measured
T1 sequence (Q63921 27-602): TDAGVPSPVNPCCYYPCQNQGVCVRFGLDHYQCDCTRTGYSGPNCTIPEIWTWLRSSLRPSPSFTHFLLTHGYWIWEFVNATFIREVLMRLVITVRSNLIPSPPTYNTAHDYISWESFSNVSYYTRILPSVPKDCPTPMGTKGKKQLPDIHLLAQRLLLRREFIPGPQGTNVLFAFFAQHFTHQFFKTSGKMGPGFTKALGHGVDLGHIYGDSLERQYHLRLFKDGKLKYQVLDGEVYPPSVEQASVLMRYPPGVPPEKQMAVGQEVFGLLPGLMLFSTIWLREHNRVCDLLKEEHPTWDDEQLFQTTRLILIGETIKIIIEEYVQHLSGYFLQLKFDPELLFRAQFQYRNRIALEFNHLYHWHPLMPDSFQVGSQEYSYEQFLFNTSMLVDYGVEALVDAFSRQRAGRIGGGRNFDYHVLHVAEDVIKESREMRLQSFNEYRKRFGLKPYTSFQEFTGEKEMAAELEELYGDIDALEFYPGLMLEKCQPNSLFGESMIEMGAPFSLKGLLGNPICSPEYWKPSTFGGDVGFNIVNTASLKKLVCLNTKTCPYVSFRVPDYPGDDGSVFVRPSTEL
Description: (§1) The primary screening test used is a determination of the inhibition of lipoxygenase and cyclooxygenase derived from rat basophilic leukemia (RBL-1) cells. The test was carried out according to the following procedure:
(§2) Single cell suspensions of RBL-1 cells are homogenized to obtain the microsomal fraction containing lipoxygenase and cyclooxygenase. Test compounds are added to the enzyme-containing homogenate for a 5 min preincubation period at 37° C. prior to the addition of ^14 C-arachidonic acid substrate. Following incubation at 37° C. for 15 min, the reaction is stopped by the addition of 2M formic acid and the enzyme-substrate products are extracted into chloroform. An aliquot of the extract is evaporated to dryness, reconstituted in ether to 1/10 original volume, spotted on thin layer chromatography plates and chromatographed. The peak areas of radioactivity representing the products are located by scanning the plates. The quantity of products formed is estimated by measuring the height of the radioactivity peaks observed on the chromatographic scans. Alternatively, the areas of radioactivity are scraped from the plate and the ^14 C quantitated by scintillation counting. The percent inhibition in the formation of the cyclooxygenase product PGD2, designated as Cl and lipoxygenase products, L1 designated for 5,12-di-HETE and L2 for 5-HETE are shown. Compounds with >50% inhibition of L1 and L2 at a screening concentration of 1 μM are considered active.
(§3) ^(a) Percent inhibition of cyclooxygenase (C1) and lipoxygenase (L1
(§4) and L2) formation at a dose of 1 μM.
(§5) ^(b) Inhibitory concentration (μ M) in 50% of tests.

[1] = test system: SRS-A component of immunologically induced broncho-construction; experiment: effect on the SRS-A component of immunologically induced bronchoconstriction in guinea pigs; format: in vivo; details: i.v.; for ED50: Cavia porcellus, iv, guinea pig, indomethacin + chlorpheniramine medicated, arachidonic acid, antigen challenge, read-out: In vivo Guinea Pig ED50 i.v.
Description: The test was carried out according to the following procedure:
Two weeks after immunization with egg albumin, guinea pigs are prepared for bronchoconstruction determination. One hour prior to antigen challenge, each animal is dosed orally with idomethacin and chlorpheniramine. Animals are anesthetized with sodium pentobarbital, the trachea cannulated and the animal artifically respired. Arachidonic acid is administered intravenously prior to antigen challenge. The resulting bronchoconstruction is recorded by the standard lung overflow procedure and the peak increase in intratracheal pressure (mm Hg) over a 10 minute observation period is recorded. Compounds are evaluated for their ability to prevent the increased intratracheal pressure in an experimental group of animals as compared to the medicated (indomethacin+chlorpheniramine+arachidonic acid) control group. The results are expressed in terms of percent inhibition or as ED50 values (effective does in 50% of the animals).

lipoxygenase = target: T2, lipoxygenase (Rattus norvegicus, UniProt P12527); experiment: inhibition of lipoxygenase derived from rat basophilic leukemia (RBL-1) cells (L1 5,12-di-HETE and L2 5-HETE formation); format: biochemical; details: RBL-1 enzyme
T2 construct: Single cell suspensions of RBL-1 cells are homogenized to obtain the microsomal fraction containing lipoxygenase and cyclooxygenase; endogenous in cells; host or cells: RBL-1 (rat basophilic leukemia) cells, homogenate / microsomal fraction
T2 sequence (P12527 1-673): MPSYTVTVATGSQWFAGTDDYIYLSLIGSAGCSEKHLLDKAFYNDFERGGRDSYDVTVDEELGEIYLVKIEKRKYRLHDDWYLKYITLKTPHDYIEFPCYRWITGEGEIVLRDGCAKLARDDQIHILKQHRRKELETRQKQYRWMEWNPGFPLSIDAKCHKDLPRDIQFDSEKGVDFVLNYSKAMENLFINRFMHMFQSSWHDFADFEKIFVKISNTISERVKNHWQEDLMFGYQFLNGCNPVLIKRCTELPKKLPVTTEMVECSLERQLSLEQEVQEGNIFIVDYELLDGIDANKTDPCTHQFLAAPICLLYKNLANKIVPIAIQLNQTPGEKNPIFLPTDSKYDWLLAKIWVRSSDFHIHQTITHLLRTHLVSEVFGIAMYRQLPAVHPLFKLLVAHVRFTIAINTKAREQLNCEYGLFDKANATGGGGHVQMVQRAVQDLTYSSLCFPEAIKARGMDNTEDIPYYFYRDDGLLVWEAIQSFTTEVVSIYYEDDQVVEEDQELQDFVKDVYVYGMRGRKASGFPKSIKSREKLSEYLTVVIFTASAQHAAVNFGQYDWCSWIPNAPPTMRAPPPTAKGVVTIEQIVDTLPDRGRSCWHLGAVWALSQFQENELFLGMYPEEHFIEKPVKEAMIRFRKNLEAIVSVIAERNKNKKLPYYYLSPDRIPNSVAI
Description: as §1, §2, §3, §4, §5

[2] = L1 5,12-di-HETE, read-out: % Inhibition L1 (lipoxygenase product 5,12-di-HETE)
[3] = L2 5-HETE, read-out: % Inhibition L2 (lipoxygenase product 5-HETE)
[4] = L1 5,12-di-HETE, read-out: IC50 L1 (lipoxygenase product 5,12-di-HETE)
[5] = L2 5-HETE, read-out: IC50 L2 (lipoxygenase product 5-HETE)

| SMILES | inhibition at 1 µM (cyclooxygenase) [%] | ED50 [1] [mg/kg] | inhibition at 1 µM (lipoxygenase; [2]) [%] | inhibition at 1 µM (lipoxygenase; [3]) [%] | IC50 (lipoxygenase; [4]) [nM] | IC50 (lipoxygenase; [5]) [nM] | In vivo Guinea Pig percent inhibition ([1]; 0.3 mg/kg) [%] | In vivo Guinea Pig percent inhibition ([1]; 1-3 mg/kg) [%] |
| --- | --- | --- | --- | --- | --- | --- | --- | --- |
| COc1ccc(Nc2ccc(O)cc2)c(CO)c1 [Example 1c, 2-(4-Hydroxyphenylamino)-5-methoxybenzenemethanol] | 2 | 0.13 | 88 | 98 | 200 | 90 |  |  |
| OCc1ccccc1Nc1ccc(O)cc1 [Example 2c, 2-(4-Hydroxyphenylamino)benzenemethanol] | 4 | 0.84 | 84 | 94 | 380 | 280 |  |  |
| OCc1cc(Cl)ccc1Nc1ccc(O)cc1 [Example 3c, 5-Chloro-2-(4-hydroxyphenylamino)benzenemethanol] | 6 | 0.49 | 81 | 99 | 60 | 40 |  |  |
| OCc1ccc(Cl)cc1Nc1ccc(O)cc1 [Example 4c, 4-Chloro-2-(4-hydroxyphenylamino)benzenemethanol] | 24 |  | 82 | 100 | 230 | 160 | 43 | 63 |
| CC(O)c1ccccc1Nc1ccc(O)cc1 (stereo not drawn) [Example 5c, 2-(4-Hydroxyphenylamino)-α-methylbenzenemethanol] | 14 |  | 86 | 99 | 200 | 180 |  |  |
| COc1ccc(Nc2ccc(O)cc2)c(C(C)O)c1 (stereo not drawn) [Example 6c, 2-(4-Hydroxyphenylamino)-5-methoxy-α-methylbenzenemethanol] | 2 |  | 89 | 98 | 200 | 160 |  |  |
| COc1ccc(N=C2C=CC(=O)C=C2)c(CO)c1 [Example 8, 4-(2-Hydroxymethyl-4-methoxyphenylimino)-2,5-cyclohexadien-1-one] | 0 | 0.12 | 85 | 96 | 190 | 150 |  |  |

Source: patent US4496590A, “Benzyl alcohol derivatives, their preparation and use” (Sterling Drug Inc., priority 1983, dated 1985)
